From patent US10829499B2, “Tetracyclic heterocycle compounds useful as HIV integrase inhibitors” (MERCK SHARP & DOHME CORP., priority 2016, dated 2020)
Where two headings read alike, the source gives them in different places.

Tested on: HIV-1 (NL4-3 strain)
Assay: Assay for Inhibition of HIV Replication (kinetic assay, MT4-gag-GFP reporter cell line; VIKING)
Format: cell-based
Procedure: This assay is a kinetic assay that employs a reporter cell line (MT4-gag-GFP) to quantify the number of new cells infected in each round of replication.
MT4-GFP cells (250,000 cells/ml) were bulk-infected with HIV-1 (NL4-3 strain) at low multiplicity of infection (MOI) in RPMI cell culture medium+10% FBS for 24 hours. Cells were then washed once in RPMI cell culture medium+10% FBS and resuspended in RPMI cell culture medium+0% or 10% or 100% normal human serum (NHS). Test compounds were serial-diluted in DMSO on an ECHO® liquid handler. The infected MT4-GFP cells were added to a 384-well poly-D-lysine coated black plate with clear bottom in which the diluted test compounds were placed. The cells were seeded at 8,000 cells per well and the final DMSO concentration was 0.4%. The infected cells (Green GFP cells) were quantified at both 24 and 48 hours post incubation using Acumen eX3. Viral reproductive ratio (R0) was determined using the number of infected cells at 48 hours divided by the number of infected cells at 24 hours. Percent viral growth inhibition was calculated by [1-(R-Rtripledrug),/(RDMSO-Rtripledrug)]*100. Compound potency IP or IC50 was determined by a 4-parameter dose response curve analysis. In vitro potency in the cell-based assay in the absence of normal human serum (NHS) and the presence of 100% NHS.

[1] = Human immunodeficiency virus 1, NL43, MT4-GFP cells infected with HIV-1 NL4-3, 0% normal human serum (NHS), read-out: VIKING IP50 (nM) with 0% NHS
[2] = Human immunodeficiency virus 1, NL43, MT4-GFP cells infected with HIV-1 NL4-3, 100% normal human serum (NHS), read-out: VIKING IP50 (nM) with 100% NHS
[3] = MT4-GFP cells infected with HIV-1 NL4-3, 100% normal human serum (NHS), read-out: VIKING IP50 (nM) with 100% NHS
[4] = MT4-GFP cells infected with HIV-1 NL4-3, 0% normal human serum (NHS), read-out: VIKING IP50 (nM) with 0% NHS

## COc1cc(F)cc(F)c1CNC(=O)c1c2n3c(c(O)c1=O)C(=O)N1CCCOC1C3CC2 (racemic) [Compound 59]
[1]
  IC50: 3.08 nM
[2]
  IC50: 8400 nM

## O=C(NCc1cccc(Cl)c1F)c1c2n3c(c(O)c1=O)C(=O)N1CCOC1C3CC2 (single isomer, unassigned) [Compound 3]
[1]
  IC50: 0.478 nM
[3]
  IC50: 372 nM

## O=C(NCc1cccc(Cl)c1F)c1c2n3c(c(O)c1=O)C(=O)N1CCOC1C3CC2 (single isomer, unassigned) [Compound 4]
[4]
  IC50: 0.439 nM
[3]
  IC50: 93.6 nM

## O=C(NCc1cccc(Cl)c1F)c1c2n3c(c(O)c1=O)C(=O)N1CCOC1C3CC2 (single isomer, unassigned) [Compound 5]
[4]
  IC50: 0.409 nM
[3]
  IC50: 2250 nM

## O=C(NCc1ccc(F)cc1F)c1c2n3c(c(O)c1=O)C(=O)N1CCOC1C3CC2 (single isomer, unassigned) [Compound 6]
[4]
  IC50: 0.825 nM
[3]
  IC50: 7910 nM

## O=C(NCc1ccc(F)cc1F)c1c2n3c(c(O)c1=O)C(=O)N1CCOC1C3CC2 (single isomer, unassigned) [Compound 7]
[4]
  IC50: 2.15 nM
[3]
  IC50: 1410 nM

## O=C(NCc1ccc(F)cc1F)c1c2n3c(c(O)c1=O)C(=O)N1CCOC1C3CC2 (single isomer, unassigned) [Compound 8]
[4]
  IC50: 1 nM
[3]
  IC50: 245 nM

## O=C(NCc1ccc(F)cc1F)c1c2n3c(c(O)c1=O)C(=O)N1CCOC1C3CC2 (single isomer, unassigned) [Compound 9]
[1]
  IC50: 0.7 nM
[3]
  IC50: 1130 nM

## O=C(NCc1ccccc1F)c1c2n3c(c(O)c1=O)C(=O)N1CCOC1C3CC2 (single isomer, unassigned) [Compound 10]
[1]
  IC50: 0.813 nM
[3]
  IC50: 226 nM

## O=C(NCc1ccccc1F)c1c2n3c(c(O)c1=O)C(=O)N1CCOC1C3CC2 (single isomer, unassigned) [Compound 11]
[4]
  IC50: 1.09 nM
[3]
  IC50: 589 nM

## O=C(NCc1ccccc1F)c1c2n3c(c(O)c1=O)C(=O)N1CCOC1C3CC2 (single isomer, unassigned) [Compound 12]
[4]
  IC50: 1.39 nM
[3]
  IC50: 892 nM

## O=C(NCc1ccccc1F)c1c2n3c(c(O)c1=O)C(=O)N1CCOC1C3CC2 (single isomer, unassigned) [Compound 13]
[4]
  IC50: 0.827 nM
[3]
  IC50: 5520 nM

## O=C(NCc1c(F)cccc1F)c1c2n3c(c(O)c1=O)C(=O)N1CCOC1C3CC2 (single isomer, unassigned) [Compound 14]
[4]
  IC50: 0.827 nM
[3]
  IC50: 194 nM

## O=C(NCc1c(F)cccc1F)c1c2n3c(c(O)c1=O)C(=O)N1CCOC1C3CC2 (single isomer, unassigned) [Compound 15]
[4]
  IC50: 0.609 nM
[3]
  IC50: 373 nM

## O=C(NCc1c(F)cccc1F)c1c2n3c(c(O)c1=O)C(=O)N1CCOC1C3CC2 (single isomer, unassigned) [Compound 16]
[2]
  IC50: 8000 nM
[4]
  IC50: 6.28 nM

## O=C(NCc1c(F)cccc1F)c1c2n3c(c(O)c1=O)C(=O)N1CCOC1C3CC2 (single isomer, unassigned) [Compound 17]
[4]
  IC50: 7.09 nM
[3]
  IC50: 7940 nM

## O=C(NCc1c(F)cc(F)cc1F)c1c2n3c(c(O)c1=O)C(=O)N1CCOC1C3CC2 (single isomer, unassigned) [Compound 18]
[1]
  IC50: 0.483 nM
[2]
  IC50: 8000 nM

## O=C(NCc1c(F)cc(F)cc1F)c1c2n3c(c(O)c1=O)C(=O)N1CCOC1C3CC2 (single isomer, unassigned) [Compound 19]
[4]
  IC50: 0.539 nM
[3]
  IC50: 1230 nM

## O=C(NCc1c(F)cc(F)cc1F)c1c2n3c(c(O)c1=O)C(=O)N1CCOC1C3CC2 (single isomer, unassigned) [Compound 20]
[4]
  IC50: 0.727 nM
[3]
  IC50: 602 nM

## O=C(NCc1c(F)cc(F)cc1F)c1c2n3c(c(O)c1=O)C(=O)N1CCOC1C3CC2 (single isomer, unassigned) [Compound 21]
[4]
  IC50: 0.605 nM
[3]
  IC50: 158 nM

## O=C(NCc1ccc(F)c(Cl)c1)c1c2n3c(c(O)c1=O)C(=O)N1CCOC1C3CC2 (single isomer, unassigned) [Compound 22]
[1]
  IC50: 0.895 nM
[3]
  IC50: 503 nM

## O=C(NCc1ccc(F)c(Cl)c1)c1c2n3c(c(O)c1=O)C(=O)N1CCOC1C3CC2 (single isomer, unassigned) [Compound 23]
[4]
  IC50: 1.06 nM
[3]
  IC50: 2190 nM

## O=C(NCc1ccc(F)c(Cl)c1)c1c2n3c(c(O)c1=O)C(=O)N1CCOC1C3CC2 (single isomer, unassigned) [Compound 24]
[2]
  IC50: 8000 nM
[4]
  IC50: 0.622 nM

## O=C(NCc1ccc(F)c(Cl)c1)c1c2n3c(c(O)c1=O)C(=O)N1CCOC1C3CC2 (single isomer, unassigned) [Compound 25]
[4]
  IC50: 0.809 nM
[3]
  IC50: 2540 nM

## C[C@H]1COC2C3CCc4c(C(=O)NCc5ccc(F)cc5F)c(=O)c(O)c(n43)C(=O)N21 (single isomer, unassigned) [Compound 27]
[1]
  IC50: 0.313 nM
[3]
  IC50: 956 nM

## C[C@H]1COC2C3CCc4c(C(=O)NCc5ccc(F)cc5F)c(=O)c(O)c(n43)C(=O)N21 (single isomer, unassigned) [Compound 28]
[4]
  IC50: 0.401 nM
[3]
  IC50: 257 nM

## C[C@H]1COC2C3CCc4c(C(=O)NCc5cccc(Cl)c5F)c(=O)c(O)c(n43)C(=O)N21 (single isomer, unassigned) [Compound 29]
[1]
  IC50: 0.412 nM
[3]
  IC50: 3410 nM

## C[C@H]1COC2C3CCc4c(C(=O)NCc5cccc(Cl)c5F)c(=O)c(O)c(n43)C(=O)N21 (single isomer, unassigned) [Compound 30]
[4]
  IC50: 0.536 nM
[3]
  IC50: 838 nM

## C[C@H]1COC2C3CCc4c(C(=O)NCc5cccc(Cl)c5F)c(=O)c(O)c(n43)C(=O)N21 (single isomer, unassigned) [Compound 31]
[4]
  IC50: 0.418 nM
[3]
  IC50: 197 nM

## C[C@@H]1COC2C3CCc4c(C(=O)NCc5ccc(F)cc5F)c(=O)c(O)c(n43)C(=O)N21 (single isomer, unassigned) [Compound 33]
[1]
  IC50: 0.543 nM
[2]
  IC50: 1940 nM

## C[C@@H]1COC2C3CCc4c(C(=O)NCc5ccc(F)cc5F)c(=O)c(O)c(n43)C(=O)N21 (single isomer, unassigned) [Compound 34]
[4]
  IC50: 0.635 nM
[3]
  IC50: 1560 nM

## C[C@@H]1COC2C3CCc4c(C(=O)NCc5cccc(Cl)c5F)c(=O)c(O)c(n43)C(=O)N21 (single isomer, unassigned) [Compound 36]
[1]
  IC50: 0.826 nM
[2]
  IC50: 1060 nM

## C[C@@H]1COC2C3CCc4c(C(=O)NCc5cccc(Cl)c5F)c(=O)c(O)c(n43)C(=O)N21 (single isomer, unassigned) [Compound 37]
[4]
  IC50: 0.546 nM
[3]
  IC50: 1690 nM

## C[C@@H]1CN2C(=O)c3c(O)c(=O)c(C(=O)NCc4cccc(Cl)c4F)c4n3C(CC4)C2O1 (single isomer, unassigned) [Compound 39]
[2]
  IC50: 8000 nM
[4]
  IC50: 0.575 nM

## C[C@@H]1CN2C(=O)c3c(O)c(=O)c(C(=O)NCc4cccc(Cl)c4F)c4n3C(CC4)C2O1 (single isomer, unassigned) [Compound 40]
[4]
  IC50: 1.84 nM
[3]
  IC50: 8000 nM

## C[C@@H]1CN2C(=O)c3c(O)c(=O)c(C(=O)NCc4cccc(Cl)c4F)c4n3C(CC4)C2O1 (single isomer, unassigned) [Compound 41]
[4]
  IC50: 0.854 nM
[3]
  IC50: 2380 nM

## C[C@H]1CN2C(=O)c3c(O)c(=O)c(C(=O)NCc4cccc(Cl)c4F)c4n3C(CC4)C2O1 (single isomer, unassigned) [Compound 43]
[4]
  IC50: 1.06 nM
[3]
  IC50: 18.2 nM

## C[C@H]1CN2C(=O)c3c(O)c(=O)c(C(=O)NCc4cccc(Cl)c4F)c4n3C(CC4)C2O1 (single isomer, unassigned) [Compound 44]
[4]
  IC50: 0.879 nM
[3]
  IC50: 378 nM

## C[C@H]1CN2C(=O)c3c(O)c(=O)c(C(=O)NCc4cccc(Cl)c4F)c4n3C(CC4)C2O1 (single isomer, unassigned) [Compound 45]
[4]
  IC50: 5.81 nM
[3]
  IC50: 486 nM

## O=C(NCc1cccc(Cl)c1F)c1c2n3c(c(O)c1=O)C(=O)N1CCCO[C@@H]1[C@@H]3CC2 (single isomer, unassigned) [Compound 48]
[1]
  IC50: 1.31 nM
[2]
  IC50: 27.3 nM

## O=C(NCc1cccc(Cl)c1F)c1c2n3c(c(O)c1=O)C(=O)N1CCCOC1C3CC2 (single isomer, unassigned) [Compound 49]
[1]
  IC50: 0.96 nM
[2]
  IC50: 1190 nM

## O=C(NCc1cccc(Cl)c1F)c1c2n3c(c(O)c1=O)C(=O)N1CCCOC1C3CC2 (single isomer, unassigned) [Compound 50]
[4]
  IC50: 0.901 nM
[3]
  IC50: 1070 nM

## O=C(NCc1ccc(F)cc1)c1c2n3c(c(O)c1=O)C(=O)N1CCCOC1C3CC2 (single isomer, unassigned) [Compound 51]
[1]
  IC50: 1.25 nM
[3]
  IC50: 32.6 nM

## O=C(NCc1ccc(F)cc1)c1c2n3c(c(O)c1=O)C(=O)N1CCCOC1C3CC2 (single isomer, unassigned) [Compound 52]
[4]
  IC50: 1.29 nM
[3]
  IC50: 3380 nM

## O=C(NCc1ccc(F)cc1)c1c2n3c(c(O)c1=O)C(=O)N1CCCOC1C3CC2 (single isomer, unassigned) [Compound 53]
[4]
  IC50: 0.963 nM
[3]
  IC50: 393 nM
